Source: article PMC9714824, “Hexapeptides from mammalian inhibitory hormone hunt activate and inactivate nematode reproduction” (PLOS ONE, 2022)

Columns and labels:
[1] = Toxicity study in immunodeficient nude mice; assay type: in vivo, female Balb/c immunodeficient nude mice; settings: for Toxicity: in words; for Maximum weight loss compared to Day 0: groups of 2 mice
Method: For toxicity studies female Balb/c immunodeficient nude mice were used (B & K Universal, Hull, UK), aged 6–8 weeks old. They were housed in cages in isolation cabinets in an air-conditioned room with regular alternating cycles of light and darkness and received Teklad 2018 (Envigo) diet and water ad libitum. EPL001 and EPL030 in PBS at pH7.4 were administered to groups of 2 mice intraperitoneally (i.p.) daily on Days 0–4 at 500 mg/kg/dose and then 1000 mg/kg/dose. Following treatment, body weight was measured on a regular basis, and behaviour and general appearance monitored visually to assess for deleterious effects (e.g. dehydration, impaired mobility, hunched posture, low body temperature, ulceration and significant body weight loss), with any effects during the study recorded. […] If no deleterious effects were seen after at least 16 days of study, then the animals were sacrificed, with the dose considered non-toxic.
For toxicity studies female Balb/c immunodeficient nude mice were used (B & K Universal, Hull, UK), aged 6-8 weeks old. They were housed in cages in isolation cabinets in an air-conditioned room with regular alternating cycles of light and darkness and received Teklad 2018 (Envigo) diet and water ad libitum. EPL001 and EPL030 in PBS at pH7.4 were administered to groups of 2 mice intraperitoneally (i.p.) daily on days 0-4 at 500mg/kg/dose and then 1000mg/kg/dose. Following treatment, body weight was measured on a regular basis, and behaviour and general appearance monitored visually to assess for deleterious effects (e.g. dehydration, impaired mobility, hunched posture, low body temperature, ulceration and significant body weight loss), with any effects during the study recorded.

[2] = system: human prostate cancer cell lines (LNCaP, PC3 and DU145); assay: 3H-thymidine incorporation, prostate cancer cells; assay type: cell-based; settings: 0.06 or 6 μM, 24h then 48h pulse; in words (Fig 4)
Method: For assays involving 14mer peptides only human prostate cancer cell lines (LNCaP, PC3 and DU145) were obtained from ATCC (American Tissue Type Culture Collection, Rockville, MD, USA). Cells were cultured in DMEM (Dulbecco’s […], Life Technologies, Grand Island, NY, USA) supplemented with 10% fetal calf serum (FCS, heat-inactivated), 100 IU/ml penicillin and 10 μg/ml streptomycin (all CSL, Parkville, Victoria, Australia) in 75 cm^2 culture flasks (Becton Dickinson, Franklin Lakes, NJ, USA) and were maintained at 37°C in a humidified incubator with […]. Incorporation of ^3H-thymidine was used to assess DNA synthesis. Cells were seeded overnight at 0.5 x 10^5 cells per well in 24-well tissue culture plates in DMEM culture medium (supplemented as above with 10% FCS, penicillin and streptomycin). Cell growth was synchronised by culturing cells in DMEM containing 0.1% bovine serum albumin (supplemented with penicillin and streptomycin, but without FCS) for 24h. […]
Fig 4 EPL001 and EPL030 effects on human prostate cancer cell growth in vitro. Cell proliferation was determined by ^3H-thymidine incorporation. […]

[3] = system: PC3 cells; assay: MTS colorimetric viable cell assay, PC3; assay type: cell-based, human; settings: for OD below that of EPL001: PC3 time course study
Method in brief: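 Cells seeded at 8,000/well, given peptides (14mer to 6mer) at 30 μM final at the outset, triplicate, buffer controls; viable cells by MTS absorbance at 492 nm after 27 h growth. Data as OD mean ± SEM, two-tailed t-test; a 14mer time course on PC3 read at 24 and 48 h.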

[4] = system: hDPSC (Human Dental Pulp Derived Mesenchymal-Like Stem/Progenitor Cells); set-up: method as in earlier work; settings: EPL001 0.15µM or EPL140 15µM, three days; cited from earlier work
[5] = system: hMSCs; set-up: method as in earlier work; settings: EPL001 0.15µM or EPL140 15µM, three days; cited from earlier work
[6] = system: MCF 7 human breast cancer cells; settings: in words; EPL120 over 72h, dose range 0.04 nM– 4 μM; cited from earlier work
[7] = 500mg/kg/day ip Days 0 to 4, on Day 2
[8] = 1000mg/kg/day ip Days 0 to 4, EPL030 on Day 3, EPL001 on Day 1

Sequence | Toxicity ([1]; 500mg/kg/day ip Days 0 to 4) | Maximum weight loss compared to Day 0 [1, 7] [%] | Maximum weight loss compared to Day 0 [1, 8] [%] | Toxicity ([1]; 1000mg/kg/day ip Days 0 to 4) | Cell proliferation by 3H-thymidine incorporation [2] | OD below that of EPL001 ([3]; 24h) [%] | OD below that of EPL001 ([3]; 48h) [%] | Bmal1 expression [4] | OCN expression [4] | PPARγ expression [4] | Per2 expression [4] | Rev-ErbA expression [4] | Sox9 expression [4] | Bmal1 expression [5] | OCN expression [5] | PPARγ expression [5] | Per2 expression [5] | Sox9 expression [5] | Inhibition of IGF-1 stimulated growth in MCF-7 cell numbers [6] | Difference in percentage terms between control and test OD means ([3]; PC3, 30 μM, 27h, MTS, 492 nm, triplicate) [%]
KLKMNGKNIEPVFT [EPL030, …, scrambled EPL001 control] | No discernible toxicity | 4.0 | 7.0 | no discernible signs of toxicity | antiproliferative | 18.9 | 51.3 | – | – | – | – | – | – | – | – | – | – | – | – | –
MKPLTGKVKEFNNI [EPL001, 14mer master test peptide …; ovine provenance] | No discernible toxicity | 5.0 | 3.5 | no discernible signs of toxicity | antiproliferative | – | – | ↑ | ↓↓ | ↓↓ | ↑ | ↓ | (↓) | ↑↑ | ↓ | ↓ | ↓ | ↓ | inhibits the proliferation | −0.7
